Results as given in US8802737B2, “Method for improving tetracycline-resistance of Acinetobacter baumannii” (priority 2011, dated 2014).
In brackets after ≈: the same amount, converted by molar mass.

What was measured:
Type in all cases: cell-based, Acinetobacter baumannii
[1] = system: A. baumannii strain AB1; assay: MIC by broth micro-dilution, clinical strain AB1; details: for MIC: Acinetobacter baumannii, read-out: susceptibilities to antibiotics (MICs); for MIC, ginger compound only: strain AB1, 10^5 cfu/mL, no tetracycline
Description: (§1) Precisely, five strains of clinical A. baumannii, named AB1, AB2, AB4, AB5, AB6, are isolated from patients in Kaohsiung Medical University Hospital, 1600-bed tertiary referral medical center in Taiwan, wherein each of strains is from different clones by genotyping and collected from different samples, for example, sputum, wound pus, blood, pleural fluid, and bronchial washing. All of the five strains of A. baumannii are stored in trypticase soy broth (Difco Laboratories, Detroit, Mich.) with 20% glycerol at −80° C. until the following use.
(§2) Some of the antibiotics including ampicillin, cefazolin and cefmetazole have no MIC breakpoints according to CLSI.
(§3) In the present embodiment, 10^5 cfu/mL of each strain of A. baumannii are prepared, and the medication test of the present invention is carried out by respectively providing the medication of the present invention and the ginger compound only to each strain of A. baumannii. In this way, the antimicrobial activities of the medication of the present invention and of the ginger compound only are monitored and recorded respectively.

[2] = system: A. baumannii strain AB2; assay: MIC by broth micro-dilution, clinical strain AB2; details: for MIC: Acinetobacter baumannii, read-out: susceptibilities to antibiotics (MICs); for MIC, ginger compound only: strain AB2, 10^5 cfu/mL, no tetracycline
Description: as §1, §2, §3

[3] = system: A. baumannii strain AB4; assay: MIC by broth micro-dilution, clinical strain AB4; details: for MIC: Acinetobacter baumannii, read-out: susceptibilities to antibiotics (MICs); for MIC, ginger compound only: strain AB4, 10^5 cfu/mL, no tetracycline
Description: as §1, §2, §3

[4] = system: A. baumannii strain AB5; assay: MIC by broth micro-dilution, clinical strain AB5; details: for MIC: Acinetobacter baumannii, read-out: susceptibilities to antibiotics (MICs); for MIC, ginger compound only: strain AB5, 10^5 cfu/mL, no tetracycline
Description: as §1, §2, §3

[5] = system: A. baumannii strain AB6; assay: MIC by broth micro-dilution, clinical strain AB6; details: for MIC: Acinetobacter baumannii, read-out: susceptibilities to antibiotics (MICs); for MIC, ginger compound only: strain AB6, 10^5 cfu/mL, no tetracycline
Description: as §1, §2, §3

C[C@@H](O)[C@H]1C(=O)N2C(C(=O)O)=C(S[C@@H]3CN[C@H](C(=O)N(C)C)C3)[C@H](C)[C@H]12 [Meropenem]
MIC ([1]; strain AB1, LB broth): ≥ 16 µg/mL
MIC ([2]; strain AB2, LB broth): ≥ 16 µg/mL
MIC ([3]; strain AB4, LB broth): ≥ 16 µg/mL
MIC ([4]; strain AB5, LB broth): ≥ 16 µg/mL
MIC ([5]; strain AB6, LB broth): ≥ 16 µg/mL

CCCCCCCCC[C@H](O)CC(=O)CCc1ccc(O)c(OC)c1 [[10]-gingerol]
MIC, ginger compound only [1]: 144.6 µM (≈ 50.7 µg/mL)
MIC, ginger compound only [2]: 162.3 µM (≈ 56.9 µg/mL)
MIC, ginger compound only [3]: 196.0 µM (≈ 68.7 µg/mL)
MIC, ginger compound only [4]: 207.5 µM (≈ 72.7 µg/mL)
MIC, ginger compound only [5]: 198.1 µM (≈ 69.4 µg/mL)

CO/N=C(\C(=O)N[C@@H]1C(=O)N2C(C(=O)[O-])=C(C[N+]3(C)CCCC3)CS[C@H]12)c1csc(N)n1 [Cefepime]
MIC ([1]; strain AB1, LB broth): ≥ 64 µg/mL
MIC ([2]; strain AB2, LB broth): ≥ 64 µg/mL
MIC ([3]; strain AB4, LB broth): ≥ 64 µg/mL
MIC ([4]; strain AB5, LB broth): ≥ 64 µg/mL
MIC ([5]; strain AB6, LB broth): ≥ 64 µg/mL

CC(C)(O/N=C(\C(=O)N[C@@H]1C(=O)N2C(C(=O)[O-])=C(C[n+]3ccccc3)CS[C@H]12)c1csc(N)n1)C(=O)O [Ceftazidime]
MIC ([1]; strain AB1, LB broth): ≥ 64 µg/mL
MIC ([2]; strain AB2, LB broth): ≥ 64 µg/mL
MIC ([3]; strain AB4, LB broth): ≥ 64 µg/mL
MIC ([4]; strain AB5, LB broth): ≥ 64 µg/mL
MIC ([5]; strain AB6, LB broth): ≥ 64 µg/mL

CC1(C)S[C@@H]2[C@H](NC(=O)[C@H](N)c3ccccc3)C(=O)N2[C@H]1C(=O)O [Ampicillin]
MIC ([1]; strain AB1, LB broth): ≥ 512 µg/mL
MIC ([2]; strain AB2, LB broth): ≥ 512 µg/mL
MIC ([3]; strain AB4, LB broth): ≥ 512 µg/mL
MIC ([4]; strain AB5, LB broth): ≥ 512 µg/mL
MIC ([5]; strain AB6, LB broth): ≥ 512 µg/mL

CCCCC/C=C/C(=O)CCc1ccc(O)c(OC)c1 [[6]-shogaol]
MIC, ginger compound only [1]: 208.1 µM (≈ 57.5 µg/mL)
MIC, ginger compound only [2]: 274.0 µM (≈ 75.7 µg/mL)
MIC, ginger compound only [3]: 279.7 µM (≈ 77.3 µg/mL)
MIC, ginger compound only [4]: 261.3 µM (≈ 72.2 µg/mL)
MIC, ginger compound only [5]: 347.2 µM (≈ 96 µg/mL)

CN(C)[C@@H]1C(O)=C(C(N)=O)C(=O)[C@@]2(O)C(O)=C3C(=O)c4c(O)cccc4[C@@](C)(O)[C@H]3C[C@@H]12 [Tetracycline]
MIC ([1]; strain AB1, LB broth): 32 µg/mL (≈ 72 µM)
MIC ([2]; strain AB2, LB broth): ≥ 512 µg/mL
MIC ([3]; strain AB4, LB broth): ≥ 512 µg/mL
MIC ([4]; strain AB5, LB broth): ≥ 512 µg/mL
MIC ([5]; strain AB6, LB broth): ≥ 512 µg/mL

CCN1CCN(C(=O)N[C@@H](C(=O)N[C@@H]2C(=O)N3[C@@H]2SC(C)(C)[C@@H]3C(=O)O)c2ccccc2)C(=O)C1=O [Piperacillin]
MIC ([1]; strain AB1, LB broth): ≥ 128 µg/mL
MIC ([2]; strain AB2, LB broth): ≥ 128 µg/mL
MIC ([3]; strain AB4, LB broth): ≥ 128 µg/mL
MIC ([4]; strain AB5, LB broth): ≥ 128 µg/mL
MIC ([5]; strain AB6, LB broth): ≥ 128 µg/mL

CO/N=C(\C(=O)N[C@@H]1C(=O)N2C(C(=O)O)=C(CSc3nc(=O)c(=O)[nH]n3C)CS[C@H]12)c1csc(N)n1 [Ceftriaxone]
MIC ([1]; strain AB1, LB broth): ≥ 64 µg/mL
MIC ([2]; strain AB2, LB broth): ≥ 64 µg/mL
MIC ([3]; strain AB4, LB broth): ≥ 64 µg/mL
MIC ([4]; strain AB5, LB broth): ≥ 64 µg/mL
MIC ([5]; strain AB6, LB broth): ≥ 64 µg/mL

Cc1nnc(SCC2=C(C(=O)O)N3C(=O)[C@@H](NC(=O)Cn4cnnn4)[C@H]3SC2)s1 [Cefazolin]
MIC ([1]; strain AB1, LB broth): ≥ 64 µg/mL
MIC ([2]; strain AB2, LB broth): ≥ 64 µg/mL
MIC ([3]; strain AB4, LB broth): ≥ 64 µg/mL
MIC ([4]; strain AB5, LB broth): ≥ 64 µg/mL
MIC ([5]; strain AB6, LB broth): ≥ 64 µg/mL

CCCCC[C@H](O)CC(=O)CCc1ccc(O)c(OC)c1 [[6]-gingerol]
MIC, ginger compound only [1]: 226.4 µM (≈ 66.7 µg/mL)
MIC, ginger compound only [2]: 226.8 µM (≈ 66.8 µg/mL)
MIC, ginger compound only [3]: 297.1 µM (≈ 87.5 µg/mL)
MIC, ginger compound only [4]: 277.3 µM (≈ 81.6 µg/mL)
MIC, ginger compound only [5]: 275.6 µM (≈ 81.1 µg/mL)

Gentamicin
susceptibilities to antibiotics (MICs) ([1]; strain AB1, LB broth): ≧16 μg/ml
susceptibilities to antibiotics (MICs) ([2]; strain AB2, LB broth): ≧16 μg/ml
susceptibilities to antibiotics (MICs) ([3]; strain AB4, LB broth): ≧16 μg/ml
susceptibilities to antibiotics (MICs) ([4]; strain AB5, LB broth): ≧16 μg/ml
susceptibilities to antibiotics (MICs) ([5]; strain AB6, LB broth): ≧16 μg/ml

CO[C@@]1(NC(=O)CSCC#N)C(=O)N2C(C(=O)O)=C(CSc3nnnn3C)CS[C@@H]21 [Cefmetazole]
MIC ([1]; strain AB1, LB broth): ≥ 64 µg/mL
MIC ([2]; strain AB2, LB broth): ≥ 64 µg/mL
MIC ([3]; strain AB4, LB broth): ≥ 64 µg/mL
MIC ([4]; strain AB5, LB broth): ≥ 64 µg/mL
MIC ([5]; strain AB6, LB broth): ≥ 64 µg/mL

CCCCCC(=O)CC(=O)/C=C/c1ccc(O)c(OC)c1 [[6]-dehydrogingerdione]
MIC, ginger compound only [1]: 198.1 µM (≈ 57.5 µg/mL)
MIC, ginger compound only [2]: 166.2 µM (≈ 48.3 µg/mL)
MIC, ginger compound only [3]: 137.6 µM (≈ 40 µg/mL)
MIC, ginger compound only [4]: 178.5 µM (≈ 51.8 µg/mL)
MIC, ginger compound only [5]: 207.1 µM (≈ 60.1 µg/mL)
